Laboratory results from patent US20030083266A1 (priority 2002, published 2003).

Tests used:
PC12 cells [1] = test: In vitro intracellular antioxidation: [3H]-thymidine uptake by PC12 cells under 6-hydroxy-dopamine oxidative stress; format: cell-based; conditions: 0.5 mM 6-hydroxy-dopamine 24 hour
Method: One of the main characteristics of the oxidative effects in PC12 cells are mimicked by 6-hydroxy-dopamine which is a false neurotransmitter taken up by the cells. Therefore, 6-hydroxy-dopamine was used as another oxidative agent and tested the protective antioxidant efficiencies of compounds A-D within the cells.
With reference now to FIG. 2. To this end, PC12 cells were subjected to high concentration (0.5 mM) of 6-hydroxy-dopamine (6-HO-DA) for 24 hour, in the presence of 0.3 mM or 0.8 mM of compounds A-D or 1 mM of reduced glutathione (GSH) a natural antioxidant, as shown in the front row of FIG. 2. A similar set of cells was treated with the same concentrations of compounds A-D and of reduced glutathione, yet without 6-hydroxy-dopamine, as shown in the back row of FIG. 2. Due to the high lipophylicity of the antioxidants used, they were first dissolved in dimethyl sulfoxide (DMSO), then in water and were applied to the cells in a final concentration of 3% DMSO. [^3H]-thymidine was added to the cells (1 μCi/100,000 cells) six hours prior to the end of the 24 hour period.
The results presented in FIG. 2 are the mean of triplicate wells taken from three independent cell batches, wherein control represent untreated cells and is defined as 100% [^3H]-thymidine uptake. The effect of DMSO on the cells was tested separately as shown.

PC12 cells [2] = test: In vitro extracellular antioxidation: [3H]-thymidine uptake by PC12 cells under dopamine oxidative stress; format: cell-based; conditions: 0.5 mM dopamine 24 hours
Method: Compounds A-D were assayed in vitro for their extracellular antioxidant activities. The assays were carried out with PC12 cells (Offen et al., 1996) subjected to a high dose of dopamine which confers oxidative stress to these cells by forming oxidation products during its oxidation in the growth medium, i.e., extracellularly.
With reference now to FIG. 1. To this end, PC12 cells were subjected to high concentration of dopamine (0.5 mM) for 24 hours in the presence of increasing concentrations (0 mM, 0.03 mM, 0.1 mM, 0.3 mM and 0.9 mM) of the various compounds A-D. [^3H]-thymidine was added to the cells (1 μCi/100,000 cells) six hours before the end of the 24 hours period. Due to the high lipophylicity of compounds A-D, the compounds were first dissolved in dimethyl sulfoxide (DMSO) and then in water and were applied to the cells in a final concentration of 3% DMSO. The effect of 3% DMSO on the cells was tested separately and the values presented in FIG. 1 are after the appropriate corrections.
[^3H]-thymidine uptake was measured in triplicate wells containing cells pretreated with dopamine alone and dopamine with each of compounds A-D at the concentrations as indicated above. The results presented in FIG. 1 show the mean of triplicate wells taken from three independent cell batches, wherein control represent cells treated only with 3% DMSO and is defined as 100% [^3H]-thymidine uptake (not shown).

[3] = tested on: endogenous reduced glutathione (GSH); test: In vivo antioxidation: striatum/serum endogenous GSH after IP injection; parameters: species or system Balb/c mice; conditions: mice, injected IP, 100-300 mg/kg, three hours post injection
Method: With reference now to FIG. 3. To this end, three groups of two months old Balb/c mice containing two animals in each group were injected intraperitonealy (IP) with 100-300 mg/kg body weight of compound A. Blood samples were drawn from the tail three hours post injection and then the animals were sacrificed and either the corpus striatum or the whole brain were removed and analyzed for GSH levels.
GSH levels were determined using the experimental procedures as described hereinbelow and/or the GSH-400 kit (Oxis International, Inc.).
Preparation of brain homogenates: Animals were rapidly killed and exsanguinated to remove excess blood from the brain. The brain of each animal was rinsed in a beaker containing water, lightly blotted to dry and were weighted. The striatums were transferred into a hand-homogenizer tube and each was homogenized using a constant number (e.g., 20) of up and down strokes of the hand-homogenizer pestle. Each of the homogenates was poured into a centrifuge tube and centrifuged for 10,000×g for 5 min. The supernatant was used for GSH determination as follows.
GSH Assay: For each measurement, 200 μl of sample were incubated with 20 μl DTNB [5,5′ dithio bis(2-nitrobenzoic acid)] for 1 hour in 37° C. Final absorbance was measured at 400 nm. Similar results were obtained using the GSH-400 kit. […]

[4] = Crossing the blood-brain-barrier: compound level in brain extracts by HPLC after IP injection; format: in vivo, C57BL/6J mice; conditions: mice
Method: Detection of compound j (referred to in this Example also as CEA) was established using high performance liquid chromatography (HPLC). To this end, CEA was treated with a fluorescent thiolyte reagent (monobromobimane reagent) and analyzed on an HPLC column.
Crossing the blood-brain-barrier: In vivo experiments were carried out on C57BL/6J mice (15 grams) injected IP with compound J. After incubation (15 min, 60 min or 4 hours) the mice were anesthetized with ether and blood samples were drawn. Then mice underwent perfusion with 50 ml of saline, injected into the right ventricle. The levels of […] in the brain and in the plasma were detected by selective fluorescent labeling using high performance liquid chromatography (HPLC).
Increasing amounts of compound J were injected IP and 15 min later, mice were perfused with saline and compound J levels in the brain extracts were determined by HPLC chromatography (FIG. 5b), as compared to a control, pure, uninjected compound J (FIG. 5a).

GSH = test: Brain GSH levels after IP injection of compound J (HPLC); format: in vivo, C57BL/6J mice; conditions: mice brain extract after IP injection
[5] = tested on: Neuroblastoma SHSY5Y (NB) cells; test: Protection from oxidative stress in vitro, neutral red survival assay; format: cell-based
Method: Protection from oxidative stress in vitro: Neuroblastoma SHSY5Y (NB) cells were maintained in Dulbeco's Modified Eagle's Medium (DMEM), supplemented with 8% FCS and 8% horse serum, penicillin (25 μg/ml), streptomycin (25 μg/ml), 2 mM L-glutamine and 400 μg/ml G418 (Gibco/BRL). For protection experiments cells were subcultured (in 2% serum) to poly-L-lysine-coated 96-well microtiter plates (Nunc), 100 μl of 5×10^5 cells/ml, CEA was applied to the cells in each well and 4 hours later DA, L-dopa (levodopa), 6-OHDA and MPP+ were added for 24 hours.
Survival was assayed by adding neutral red (0.34%, Sigma) to cells in DCCM-1 medium (0.1 ml/well, Bet-Haemek) and incubation for 2 hour at 37° C. The cells were then washed with cold PBS containing 10 mM MgCl2 and the dye was dissolved in 50% ethanol in 50% Somerson buffer (70 mM sodium citrate, 30 mM citric acid, 0.1 N HCl). ELISA reader (590 nm) was used to measure the remaining color intensity.

CCOC(=O)CNC(=O)C(CS)NC(=O)CCC(N)C(=O)O (stereo not shown) [compound D, Glutathione ethyl ester]
Increase of [3H]-thymidine uptake of 6-hydroxy-dopamine treated cells (PC12 cells [1]; compound at 0.3 mM): Ca. 3.5
Increase of [3H]-thymidine uptake of 6-hydroxy-dopamine treated cells (PC12 cells [1]; compound at 0.8 mM): Ca. 3.5
Increase of [3H]-thymidine uptake (PC12 cells [2]; compound at 0.03 mM): Ca. 2.5
Increase of [3H]-thymidine uptake (PC12 cells [2]; compound at 0.1 mM): Ca. 2.5

CCOC(=O)[C@H](CS)NC(C)=O [compound A, N-acetyl cysteine ethyl ester]
Crossing of the blood brain barrier [3]: crosses the blood brain barrier
Level of endogenous GSH at the striatum [3]: increases the level of endogenous GSH

CC(=O)NC(CS)C(N)=O (stereo not shown) [compound J]
Compound level in the brain ([4]; IP injection 0.25-4 mg, 15 min, brain extracts): concentration-dependent increase
Crossing of the BBB ([4]; IP injection, fluorescent labeling and HPLC): crosses the BBB
Increase of GSH levels over untreated animals (GSH): up to 46%
Cell survival ([5]; 0.3 mM compound, neutral red assays): up to 95%
Protection of cells against toxicity (>50%) of DA, L-dopa, 6-OHDA and MPP+ ([5]; compound at 0.1 mM, DA, L-dopa, 6-OHDA 0.1-0.25 mM, MPP+ 0.5-2 mM, 24 hours): protect the cells

CCOC(=O)C(NC(C)=O)C(C)(C)S (stereo not shown) [compound B, N-acetyl-penicillamine ethyl ester]
Increase of [3H]-thymidine uptake (PC12 cells [2]; compound at 0.03 mM): Ca. 1.5

CC(=O)N[C@H](C(=O)O)C(C)(C)S [compound C, N-acetyl-β,β-dimethyl cysteine]
Increase of [3H]-thymidine uptake of 6-hydroxy-dopamine treated cells (PC12 cells [1]; compound at 0.3 mM): Ca. 1.5
